This passage reports AC50 results from ChEMBL document CHEMBL5291721, “A preclinical secondary pharmacology resource illuminates target-adverse drug reaction associations of marketed drugs” (Nat Commun, 2023).

In one assay the target is T1, Adenosine receptor A1 (Homo sapiens, UniProt P30542).
T1 sequence (P30542 whole entry): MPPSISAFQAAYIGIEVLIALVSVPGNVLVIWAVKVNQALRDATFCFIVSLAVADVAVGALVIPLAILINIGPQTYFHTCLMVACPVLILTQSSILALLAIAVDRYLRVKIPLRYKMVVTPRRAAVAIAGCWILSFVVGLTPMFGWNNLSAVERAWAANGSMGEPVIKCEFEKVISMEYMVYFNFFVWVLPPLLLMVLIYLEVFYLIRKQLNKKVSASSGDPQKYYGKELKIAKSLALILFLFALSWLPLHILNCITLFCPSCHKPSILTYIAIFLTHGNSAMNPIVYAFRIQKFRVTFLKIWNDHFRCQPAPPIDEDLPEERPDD

Assay [1] addresses T2, Alpha-2C adrenergic receptor (Homo sapiens, UniProt P18825).
T2 sequence (P18825 whole entry): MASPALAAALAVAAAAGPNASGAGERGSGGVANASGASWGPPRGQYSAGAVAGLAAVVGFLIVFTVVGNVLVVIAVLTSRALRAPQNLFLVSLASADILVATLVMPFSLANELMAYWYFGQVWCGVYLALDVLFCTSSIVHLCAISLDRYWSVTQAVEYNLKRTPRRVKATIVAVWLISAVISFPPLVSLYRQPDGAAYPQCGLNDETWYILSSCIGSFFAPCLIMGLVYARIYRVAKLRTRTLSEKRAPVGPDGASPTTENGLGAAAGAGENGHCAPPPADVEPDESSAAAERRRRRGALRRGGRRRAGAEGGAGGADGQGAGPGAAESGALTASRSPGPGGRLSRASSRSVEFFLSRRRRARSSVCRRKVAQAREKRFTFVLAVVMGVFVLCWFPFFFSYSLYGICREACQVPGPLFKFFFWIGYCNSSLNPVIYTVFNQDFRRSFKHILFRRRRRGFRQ
It is filed as functional.

Assay [2] addresses Neuronal acetylcholine receptor subunit alpha-4 (Homo sapiens, UniProt P43681).
Assay [3] deals with T3, Cannabinoid receptor 1 (Homo sapiens, UniProt P21554).
T3 sequence (P21554 whole entry): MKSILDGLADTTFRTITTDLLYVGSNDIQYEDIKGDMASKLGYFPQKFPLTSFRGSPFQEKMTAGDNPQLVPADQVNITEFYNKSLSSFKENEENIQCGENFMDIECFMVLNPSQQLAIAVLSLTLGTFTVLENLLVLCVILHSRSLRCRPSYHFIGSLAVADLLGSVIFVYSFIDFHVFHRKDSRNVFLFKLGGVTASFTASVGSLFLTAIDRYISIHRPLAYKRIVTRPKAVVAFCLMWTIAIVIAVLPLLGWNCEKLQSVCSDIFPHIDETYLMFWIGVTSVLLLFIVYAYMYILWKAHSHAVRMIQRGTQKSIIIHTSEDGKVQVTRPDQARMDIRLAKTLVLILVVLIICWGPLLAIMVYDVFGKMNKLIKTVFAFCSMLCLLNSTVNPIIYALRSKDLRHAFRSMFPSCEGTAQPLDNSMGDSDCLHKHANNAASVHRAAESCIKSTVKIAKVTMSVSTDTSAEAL
Another assay addresses T4, Estrogen receptor (Homo sapiens, UniProt P03372).
T4 sequence (P03372 whole entry): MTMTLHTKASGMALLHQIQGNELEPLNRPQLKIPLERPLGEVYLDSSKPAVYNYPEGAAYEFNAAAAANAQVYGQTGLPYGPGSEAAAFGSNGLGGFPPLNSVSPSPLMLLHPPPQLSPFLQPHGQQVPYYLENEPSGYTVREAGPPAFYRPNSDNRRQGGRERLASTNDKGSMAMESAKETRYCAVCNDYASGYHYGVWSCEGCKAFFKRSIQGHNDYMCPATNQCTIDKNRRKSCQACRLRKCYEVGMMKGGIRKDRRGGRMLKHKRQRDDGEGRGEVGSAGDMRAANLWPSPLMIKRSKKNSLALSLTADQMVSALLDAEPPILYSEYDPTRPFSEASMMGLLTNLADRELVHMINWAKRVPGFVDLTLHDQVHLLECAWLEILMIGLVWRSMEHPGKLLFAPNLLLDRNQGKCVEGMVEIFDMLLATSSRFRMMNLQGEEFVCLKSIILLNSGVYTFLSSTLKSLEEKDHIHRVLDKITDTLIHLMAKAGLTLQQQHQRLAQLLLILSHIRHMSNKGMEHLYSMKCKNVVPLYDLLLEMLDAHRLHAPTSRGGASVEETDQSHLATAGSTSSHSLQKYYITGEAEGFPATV

Assay [4] concerns the target Gamma-aminobutyric acid receptor subunit alpha-1 (Rattus norvegicus, UniProt P62813). It is filed as functional.
The next assay addresses Histamine H2 receptor (Homo sapiens, UniProt P25021). The format is functional, cell-based.
The target in assay [5] is T5, 5-hydroxytryptamine receptor 2A (Homo sapiens, UniProt P28223). It is filed as functional, cell-based.
T5 sequence (P28223 whole entry): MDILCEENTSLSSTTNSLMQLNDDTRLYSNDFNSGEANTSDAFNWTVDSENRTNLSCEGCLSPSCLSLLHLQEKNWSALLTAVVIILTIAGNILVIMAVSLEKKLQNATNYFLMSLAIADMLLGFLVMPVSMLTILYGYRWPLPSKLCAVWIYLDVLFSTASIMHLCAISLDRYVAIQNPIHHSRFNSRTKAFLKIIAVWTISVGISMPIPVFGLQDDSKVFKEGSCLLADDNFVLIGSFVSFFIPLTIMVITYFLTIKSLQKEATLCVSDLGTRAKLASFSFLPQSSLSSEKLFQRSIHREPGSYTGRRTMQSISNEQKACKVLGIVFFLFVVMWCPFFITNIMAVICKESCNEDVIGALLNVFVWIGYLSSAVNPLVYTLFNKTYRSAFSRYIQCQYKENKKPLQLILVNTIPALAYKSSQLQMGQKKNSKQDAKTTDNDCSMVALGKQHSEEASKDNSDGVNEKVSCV
Assay [6] deals with T5, 5-hydroxytryptamine receptor 2A. The format is functional, cell-based. This is another data set of the same source.
The target of assay [7] is T6, 5-hydroxytryptamine receptor 3A (Homo sapiens, UniProt P46098).
T6 sequence (P46098 whole entry): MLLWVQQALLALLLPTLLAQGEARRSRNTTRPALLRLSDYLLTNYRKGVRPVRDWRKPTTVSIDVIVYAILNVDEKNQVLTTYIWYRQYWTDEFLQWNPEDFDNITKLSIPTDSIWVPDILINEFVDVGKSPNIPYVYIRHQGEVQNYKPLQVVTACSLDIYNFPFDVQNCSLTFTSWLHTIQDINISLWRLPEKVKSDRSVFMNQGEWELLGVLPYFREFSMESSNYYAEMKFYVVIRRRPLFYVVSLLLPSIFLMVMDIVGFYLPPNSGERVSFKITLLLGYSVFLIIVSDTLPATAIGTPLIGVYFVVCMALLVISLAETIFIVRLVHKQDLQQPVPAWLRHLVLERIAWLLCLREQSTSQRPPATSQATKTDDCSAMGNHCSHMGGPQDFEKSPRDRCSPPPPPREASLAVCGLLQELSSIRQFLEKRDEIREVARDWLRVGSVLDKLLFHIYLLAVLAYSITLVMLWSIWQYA
It is filed as functional.

Assay [8] addresses T3, Cannabinoid receptor 1. It is filed as functional, cell-based.
The target in a further assay is T7, Endothelin-1 receptor (Homo sapiens, UniProt P25101).
T7 sequence (P25101 whole entry): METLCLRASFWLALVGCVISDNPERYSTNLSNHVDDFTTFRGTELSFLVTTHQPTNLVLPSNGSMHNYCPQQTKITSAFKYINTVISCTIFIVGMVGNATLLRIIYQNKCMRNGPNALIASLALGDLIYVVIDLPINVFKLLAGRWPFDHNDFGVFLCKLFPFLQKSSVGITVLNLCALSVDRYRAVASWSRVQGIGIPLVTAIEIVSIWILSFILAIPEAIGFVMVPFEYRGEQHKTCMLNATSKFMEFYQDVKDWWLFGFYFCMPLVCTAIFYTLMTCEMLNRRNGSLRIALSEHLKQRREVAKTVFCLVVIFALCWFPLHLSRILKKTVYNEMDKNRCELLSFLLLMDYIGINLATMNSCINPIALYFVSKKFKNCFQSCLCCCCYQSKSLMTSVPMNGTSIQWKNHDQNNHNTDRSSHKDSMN

Assay [9] deals with Kappa-type opioid receptor (Homo sapiens, UniProt P41145).
Sequence of Kappa-type opioid receptor (P41145 whole entry): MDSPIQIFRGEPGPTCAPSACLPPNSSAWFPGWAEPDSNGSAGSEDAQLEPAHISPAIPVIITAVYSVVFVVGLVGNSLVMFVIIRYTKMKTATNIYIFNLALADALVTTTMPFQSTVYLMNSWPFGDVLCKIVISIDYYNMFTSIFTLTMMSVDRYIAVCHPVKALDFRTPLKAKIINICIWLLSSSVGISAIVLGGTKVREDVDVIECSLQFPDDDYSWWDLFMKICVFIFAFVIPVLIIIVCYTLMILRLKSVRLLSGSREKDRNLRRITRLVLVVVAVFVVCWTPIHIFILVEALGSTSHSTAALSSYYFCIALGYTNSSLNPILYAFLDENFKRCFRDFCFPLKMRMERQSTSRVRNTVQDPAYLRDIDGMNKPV
The target of the next assay is Histamine H3 receptor (Homo sapiens, UniProt Q9Y5N1).
Sequence of Histamine H3 receptor (Q9Y5N1 whole entry): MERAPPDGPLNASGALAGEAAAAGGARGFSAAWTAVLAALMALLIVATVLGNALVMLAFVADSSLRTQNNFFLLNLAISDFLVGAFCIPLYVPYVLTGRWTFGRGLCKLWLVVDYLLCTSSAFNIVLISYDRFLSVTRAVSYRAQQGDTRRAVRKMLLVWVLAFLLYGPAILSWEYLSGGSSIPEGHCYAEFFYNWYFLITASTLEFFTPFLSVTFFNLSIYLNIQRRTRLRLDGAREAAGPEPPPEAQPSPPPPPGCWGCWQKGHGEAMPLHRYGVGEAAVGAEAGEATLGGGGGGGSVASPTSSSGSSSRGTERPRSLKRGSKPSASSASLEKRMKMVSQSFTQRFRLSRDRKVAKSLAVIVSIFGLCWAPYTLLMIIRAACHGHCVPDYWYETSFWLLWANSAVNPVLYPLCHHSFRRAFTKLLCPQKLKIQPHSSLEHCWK

Structures are written as SMILES. Where a SMILES comes first, the peptide text is derived from it. [ ]: non-standard residue; d: D form. pGlu = O=C1CC[C@@H](C(=O)O)N1; Thz = O=C(O)[C@@H]1CSCN1
Also: assay procedure not described here.

Sequence of Histamine H2 receptor (P25021 whole entry): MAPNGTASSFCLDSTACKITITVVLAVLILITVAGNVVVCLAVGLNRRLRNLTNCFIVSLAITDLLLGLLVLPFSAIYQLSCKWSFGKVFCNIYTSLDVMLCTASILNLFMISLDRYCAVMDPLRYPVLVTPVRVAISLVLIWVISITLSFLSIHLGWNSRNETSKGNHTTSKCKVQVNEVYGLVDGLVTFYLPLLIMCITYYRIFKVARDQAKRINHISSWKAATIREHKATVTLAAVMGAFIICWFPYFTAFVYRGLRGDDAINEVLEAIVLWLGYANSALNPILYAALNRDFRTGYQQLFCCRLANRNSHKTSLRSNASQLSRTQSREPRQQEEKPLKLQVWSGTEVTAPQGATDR
Sequence of Gamma-aminobutyric acid receptor subunit alpha-1 (P62813 whole entry): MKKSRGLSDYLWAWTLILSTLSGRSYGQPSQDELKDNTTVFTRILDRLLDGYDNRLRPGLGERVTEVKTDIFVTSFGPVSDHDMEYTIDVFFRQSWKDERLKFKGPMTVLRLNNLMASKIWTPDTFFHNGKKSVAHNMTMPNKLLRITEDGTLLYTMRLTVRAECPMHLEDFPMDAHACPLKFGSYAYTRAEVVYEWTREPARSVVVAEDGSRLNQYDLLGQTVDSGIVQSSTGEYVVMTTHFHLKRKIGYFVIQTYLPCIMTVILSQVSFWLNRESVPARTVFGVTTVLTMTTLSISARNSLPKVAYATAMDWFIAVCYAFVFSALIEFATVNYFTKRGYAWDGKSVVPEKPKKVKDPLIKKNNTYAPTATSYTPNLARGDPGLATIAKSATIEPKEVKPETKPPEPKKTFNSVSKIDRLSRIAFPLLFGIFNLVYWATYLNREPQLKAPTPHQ
Sequence of Neuronal acetylcholine receptor subunit alpha-4 (P43681 whole entry): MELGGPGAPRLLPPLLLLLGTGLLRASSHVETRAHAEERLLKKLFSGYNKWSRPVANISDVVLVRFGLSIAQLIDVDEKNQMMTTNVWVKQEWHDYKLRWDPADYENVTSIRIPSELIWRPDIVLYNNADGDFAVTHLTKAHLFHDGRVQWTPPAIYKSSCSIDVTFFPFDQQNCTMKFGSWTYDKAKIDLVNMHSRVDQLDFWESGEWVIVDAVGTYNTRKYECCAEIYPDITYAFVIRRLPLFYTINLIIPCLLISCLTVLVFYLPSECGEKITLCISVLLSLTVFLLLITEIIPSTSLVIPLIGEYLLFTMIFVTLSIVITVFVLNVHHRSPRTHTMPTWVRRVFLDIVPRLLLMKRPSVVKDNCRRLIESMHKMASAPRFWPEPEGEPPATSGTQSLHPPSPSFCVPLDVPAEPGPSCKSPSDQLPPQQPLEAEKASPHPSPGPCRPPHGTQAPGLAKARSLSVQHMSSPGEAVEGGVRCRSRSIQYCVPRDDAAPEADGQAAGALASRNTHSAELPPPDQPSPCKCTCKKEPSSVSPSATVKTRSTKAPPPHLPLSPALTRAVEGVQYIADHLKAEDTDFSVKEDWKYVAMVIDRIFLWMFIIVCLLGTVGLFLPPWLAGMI

As usually defined, the AC50 is the concentration giving half of the maximal activity seen. A low value points to activity at low concentration. Consider `CC1=C(/C=C/C(C)=C/C=C/C(C)=C/CO)C(C)(C)CCC1` [RETINOL], for which the AC50 at Adenosine receptor A1 was over 10 µM; in assay [1], over 10 µM; in [2] it was over 10 µM; on Cannabinoid receptor 1 [3] it was over 10 µM; on Estrogen receptor it was over 30 µM; in assay [4], over 10 µM. Moreover, the half-maximal activity concentration (AC50) on Histamine H2 receptor was over 10 µM; in assay [5] it was over 10 µM; in [6], over 10 µM; in assay [7] it was over 30 µM.

Consider `CCc1cc2c(s1)-n1c(C)nnc1CN=C2c1ccccc1Cl` [ETIZOLAM], for which the concentration at half-maximal activity (AC50) (at Adenosine receptor A1; in assay [1]; in assay [2]; at Cannabinoid receptor 1 [8]; at Endothelin-1 receptor; at Estrogen receptor) was over 30 µM throughout. Besides, the concentration at half-maximal activity (AC50) in [4] was 0.0091 µM; on Histamine H2 receptor, over 30 µM; in [5], over 30 µM; in assay [6], over 30 µM; in [7], over 30 µM; in assay [9], 2.5 µM. The molecule further displayed a concentration at half-maximal activity (AC50) on Histamine H3 receptor of over 30 µM.

Regarding `CC(C)(C)NCC(O)c1ccccc1Cl` (centres undefined) [TULOBUTEROL], the concentration at half-maximal activity (AC50) (at Adenosine receptor A1; in assay [1]; in assay [2]; on Cannabinoid receptor 1 [8]; on Endothelin-1 receptor; at Estrogen receptor) was over 30 µM each time. The half-maximal activity concentration (AC50) (in [4]; on Histamine H2 receptor; in assay [5]; in [6]; in assay [7]; in assay [9]) was over 30 µM throughout. This molecule had an AC50 on Histamine H3 receptor of over 30 µM.

As to `CO/N=C(\C(=O)N[C@@H]1C(=O)N2C(C(=O)O)=C(CSc3nc(=O)c(=O)[nH]n3C)CS[C@H]12)c1csc(N)n1` [CEFTRIAXONE], the concentration at half-maximal activity (AC50) (on Adenosine receptor A1; in assay [1]; in assay [2]; on Cannabinoid receptor 1 [8]; on Endothelin-1 receptor; at Estrogen receptor) was over 30 µM in each case. Besides, the concentration at half-maximal activity (AC50) (in assay [4]; on Histamine H2 receptor; in [5]; in assay [6]; in [7]; in assay [9]) was over 30 µM each time. On Histamine H3 receptor, this molecule displayed a half-maximal activity concentration (AC50) of over 30 µM.

As for `CC(C(=O)O)c1ccc2c(c1)CC(=O)c1ccccc1S2` (centres undefined) [ZALTOPROFEN], the AC50 (on Adenosine receptor A1; in assay [1]; in assay [2]; on Cannabinoid receptor 1 [8]; on Endothelin-1 receptor; at Estrogen receptor) was over 30 µM each time. The concentration at half-maximal activity (AC50) in [4] is over 30 µM; on Histamine H2 receptor, over 30 µM; in [5], over 30 µM; in assay [6], over 30 µM; in assay [7] it was over 30 µM; in assay [9], 24 µM. For the same molecule, the half-maximal activity concentration (AC50) on Histamine H3 receptor is over 30 µM.

As for `Cn1c(=O)c2c(ncn2CCOC(=O)C(C)(C)Oc2ccc(Cl)cc2)n(C)c1=O` [THEOFIBRATE], the half-maximal activity concentration (AC50) (at Adenosine receptor A1; in assay [1]; in assay [2]; at Cannabinoid receptor 1 [8]; on Endothelin-1 receptor; at Estrogen receptor) was over 30 µM throughout. For the same molecule, the AC50 (in [4]; on Histamine H2 receptor; in assay [5]; in [6]; in [7]; in [9]) was over 30 µM throughout. The molecule further showed a concentration at half-maximal activity (AC50) at Histamine H3 receptor of over 30 µM.

Regarding `O=C1CC[C@@H](C(=O)N2CSC[C@H]2C(=O)O)N1` [PIDOTIMOD] ([pGlu]-[Thz]-OH), the half-maximal activity concentration (AC50) (at Adenosine receptor A1; in assay [1]; in [2]; on Cannabinoid receptor 1 [8]; on Endothelin-1 receptor; at Estrogen receptor) was over 30 µM throughout. The half-maximal activity concentration (AC50) (in assay [4]; at Histamine H2 receptor; in assay [5]; in assay [6]; in [7]; in assay [9]) was over 30 µM throughout. At Histamine H3 receptor, the half-maximal activity concentration (AC50) is over 30 µM.

Consider `CCCC(C)(COC(N)=O)COC(N)=O` [MEPROBAMATE], for which the AC50 is over 10 µM on Adenosine receptor A1; over 30 µM in assay [1]; over 10 µM in assay [2]; over 10 µM on Cannabinoid receptor 1 [3]; over 10 µM in assay [4]; over 30 µM at Histamine H2 receptor. Besides, the AC50 is over 10 µM in assay [5], over 10 µM in assay [6], over 30 µM in assay [7] and over 10 µM in [9].

For the molecule `OC[C@H]1O[C@@H](Oc2cc(O)cc(/C=C/c3ccc(O)cc3)c2)[C@H](O)[C@@H](O)[C@@H]1O` [PICEID], the AC50 (at Adenosine receptor A1; in assay [1]; in assay [2]; on Cannabinoid receptor 1 [8]; at Endothelin-1 receptor; at Estrogen receptor) was over 30 µM each time. Further, the half-maximal activity concentration (AC50) (in assay [4]; on Histamine H2 receptor; in assay [5]; in assay [6]; in [7]; in assay [9]) was over 30 µM throughout. Further, the half-maximal activity concentration (AC50) on Histamine H3 receptor was over 30 µM.

Consider `Oc1ccc(CCNCCCCCCNCCc2ccccc2)cc1O` [DOPEXAMINE], for which the concentration at half-maximal activity (AC50) on Adenosine receptor A1 was over 30 µM; in assay [1], 1.2 µM; in assay [2] it was over 30 µM; on Cannabinoid receptor 1 [8], over 30 µM; at Endothelin-1 receptor, over 30 µM; at Estrogen receptor, over 30 µM. In addition, the AC50 in assay [4] was over 30 µM; on Histamine H2 receptor, over 30 µM; in assay [5], over 30 µM; in assay [6], over 30 µM; in [7] it was over 30 µM; in [9] it was 4.3 µM. On Histamine H3 receptor, half-maximal activity (AC50) was put at 11 µM.
